Measurements as given in patent publication US8247211B2, “Glycopeptide antibiotics” (American Cyanamid Company, priority 2001, dated 2012).
≈ marks a conversion by molar mass, not a printed value.

Tests used:
[1] = test system: Staphylococcus aureus-SMITH (GC 4543); test: Acute lethal infection in mice (ED50); format: in vivo; details: female CD-1 mice, intraperitoneal challenge, intravenous dose 30 min. after infection, 7 day survival ratios
How it was run: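 Lethal systemic infection model: female CD-1 mice, 20 ± 1-2 g, intraperitoneal challenge. Single intravenous treatment 30 min after infection; 7-day survival, pooled from 3 tests, gives ED50.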

[2] = Anatomic pathology (heart and kidney histopathology) in mice; format: in vivo, CD-1 mice; details: 20 mg/kg intravenously daily for 9 days, microscopic histopathology on day 10
How it was run: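 Juvenile CD-1 mice (20 days old; 5 vehicle, 5 treated) received glycopeptide antibiotic 20 mg/kg i.v. daily for 9 days. Necropsied tissues formalin-fixed, paraffin-embedded, H&E stained and examined microscopically; findings graded slight to severe versus controls.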

Enterococcus sp. = test: In vitro antibacterial evaluation: minimum inhibitory concentration (MIC), broth dilution method; format: cell-based
How it was run: (§1)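 Using Muller-Hinton II […] and an inoculum of 5×10^5 CFU/mL, antibiotic dilutions from 64 down to 0.06 μg/mL were tested following NCCLS M7-A2. The MIC is the lowest concentration inhibiting growth, including in methicillin-, penicillin- or vancomycin-resistant clinical isolates.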

Escherichia coli = test: as above; format: cell-based; details: strain GC 4560
How it was run: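 An MIC is reported for each organism as the least concentration giving inhibition, using broth dilution over 64-0.06 μg/mL with a 5×10^5 CFU/mL inoculum.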

Streptococcus sp. = test: as above; format: cell-based
How it was run: as §1

Staphylococcus sp. = test: as above; format: cell-based; details: broth dilution, 18 hours at 35° C.
How it was run: as §1

[3] = format: in vivo; details: mice, 20 mg/kg intravenously daily for 9 days, serum on day 10
Experimental: 20-day-old CD-1 mice were divided into a vehicle control group (5 mice) and a treatment group (5 mice). Samples of glycopeptide antibiotics were administered at 20 mg/kg intravenously daily for 9 days. Animals were necropsied on day 10 Sera were analyzed for BUN (blood urea nitrogen), creatinine, AST (aspartic aminotransferase), and ALT (alanine aminotransferase) by routine, standard, automated methods using an Hitachi 747 chemistry analyzer.

With `CC(c1ccccc1)C1NC(=O)CNC(=O)C(CO)NC(=O)C(C(O)C2CN(Cc3ccc(-c4ccccc4)cc3)C(=N)N2C2OC(CO)C(O)C(O)C2O)NC(=O)C(C(O)C2CNC(=NCc3ccc(-c4ccccc4)cc3)N2Cc2ccc(-c3ccccc3)cc2)NC(=O)C(Cc2ccc(OC3OC(CO)C(OC4OC(CO)C(O)C(O)C4O)C(O)C3O)cc2)NC1=O` (stereo not drawn) [Example 66] the “median effective dose (ED50), Staphylococcus aureus-SMITH (GC 4543)” value [1] was greater than 8, the “Anatomical Pathology (Day 10), Heart” value [2] was 0 and the “Anatomical Pathology (Day 10), Kidney” value [2] was 0. For the same molecule, the “MIC Enterococcus avium (GC 4558)” value (Enterococcus sp.; Enterococcus avium (GC 4558), broth dilution, 18 hours at 35° C.) was 4 µg/mL (≈ 2.23 µM), the “MIC Enterococcus faecalis (ATCC 29212)” value (Enterococcus sp.; Enterococcus faecalis (ATCC 29212), broth dilution, 18 hours at 35° C.) was 16 µg/mL (≈ 8.92 µM) and the “MIC Enterococcus faecalis (GC 2242)” value (Enterococcus sp.; Enterococcus faecalis (GC 2242), broth dilution, 18 hours at 35° C.) was 16 µg/mL (≈ 8.92 µM). For the same molecule, the “MIC Enterococcus faecalis (GC 2691)” value (Enterococcus sp.; Enterococcus faecalis (GC 2691), broth dilution, 18 hours at 35° C.) was 32 µg/mL (≈ 17.8 µM), the “MIC Enterococcus faecalis (GC 3059)” value (Enterococcus sp.; Enterococcus faecalis (GC 3059), broth dilution, 18 hours at 35° C.) was 32 µg/mL (≈ 17.8 µM) and the “MIC Enterococcus faecalis (GC 4552)” value (Enterococcus sp.; Enterococcus faecalis (GC 4552), broth dilution, 18 hours at 35° C.) was 32 µg/mL (≈ 17.8 µM). The “MIC Enterococcus faecalis (GC 4553)” value (Enterococcus sp.; Enterococcus faecalis (GC 4553), broth dilution, 18 hours at 35° C.) was 8 µg/mL (≈ 4.46 µM), the “MIC Enterococcus faecalis (GC 4554)” value (Enterococcus sp.; Enterococcus faecalis (GC 4554), broth dilution, 18 hours at 35° C.) was 64 µg/mL (≈ 35.7 µM) and the “MIC Enterococcus faecalis (GC 6189)” value (Enterococcus sp.; Enterococcus faecalis (GC 6189), broth dilution, 18 hours at 35° C.) was 32 µg/mL (≈ 17.8 µM). For the same molecule, the “MIC Enterococcus faecium (GC 2243)” value (Enterococcus sp.; Enterococcus faecium (GC 2243), broth dilution, 18 hours at 35° C.) was 8 µg/mL (≈ 4.46 µM), the “MIC Enterococcus faecium (GC 4556)” value (Enterococcus sp.; Enterococcus faecium (GC 4556), broth dilution, 18 hours at 35° C.) was 32 µg/mL (≈ 17.8 µM) and the “MIC Enterococcus faecium (GC 4557)” value (Enterococcus sp.; Enterococcus faecium (GC 4557), broth dilution, 18 hours at 35° C.) was 4 µg/mL (≈ 2.23 µM). For the same molecule, the “MIC Enterococcus faecalis (ATCC 29212)” value (Enterococcus sp.; strain ATCC 29212) was 16 µg/mL (≈ 8.92 µM), the “MIC Enterococcus faecalis (GC 2242)” value (Enterococcus sp.; strain GC 2242) was 16 µg/mL (≈ 8.92 µM) and the “MIC Enterococcus faecium (GC 2243)” value (Enterococcus sp.; strain GC 2243) was 8 µg/mL (≈ 4.46 µM). The “MIC Enterococcus faecalis (GC 2691)” value (Enterococcus sp.; strain GC 2691) was 32 µg/mL (≈ 17.8 µM), the “MIC Enterococcus faecalis (GC 3059)” value (Enterococcus sp.; strain GC 3059) was 32 µg/mL (≈ 17.8 µM) and the “MIC Enterococcus faecalis (GC 4552)” value (Enterococcus sp.; strain GC 4552) was 32 µg/mL (≈ 17.8 µM). The “MIC Enterococcus faecalis (GC 4553)” value (Enterococcus sp.; strain GC 4553) was 8 µg/mL (≈ 4.46 µM), the “MIC Enterococcus faecalis (GC 4554)” value (Enterococcus sp.; strain GC 4554) was 64 µg/mL (≈ 35.7 µM) and the “MIC Enterococcus faecium (GC 4556)” value (Enterococcus sp.; strain GC 4556) was 32 µg/mL (≈ 17.8 µM). For the same molecule, the “MIC Enterococcus faecium (GC 4557)” value (Enterococcus sp.; strain GC 4557) was 4 µg/mL (≈ 2.23 µM), the “MIC Enterococcus avium (GC 4558)” value (Enterococcus sp.; strain GC 4558) was 4 µg/mL (≈ 2.23 µM) and the “MIC Enterococcus faecalis (GC 6189)” value (Enterococcus sp.; strain GC 6189) was 32 µg/mL (≈ 17.8 µM). The “MIC Escherichia coli (GC 4560)” value (Escherichia coli) was 4 µg/mL (≈ 2.23 µM), the “MIC Streptococcus agalactiae (GC 4564)” value (Streptococcus sp.; Streptococcus agalactiae (GC 4564), broth dilution, 18 hours at 35° C.) was 32 µg/mL (≈ 17.8 µM) and the “MIC Streptococcus pneumoniae (ATCC 6301)” value (Streptococcus sp.; Streptococcus pneumoniae (ATCC 6301), broth dilution, 18 hours at 35° C.) was 32 µg/mL (≈ 17.8 µM). For the same molecule, the “MIC Streptococcus pneumoniae (GC 1894)” value (Streptococcus sp.; Streptococcus pneumoniae (GC 1894), broth dilution, 18 hours at 35° C.) was 32 µg/mL (≈ 17.8 µM), the “MIC Streptococcus pneumoniae (GC 4565)” value (Streptococcus sp.; Streptococcus pneumoniae (GC 4565), broth dilution, 18 hours at 35° C.) was 64 µg/mL (≈ 35.7 µM) and the “MIC Streptococcus pyogenes (GC 4563)” value (Streptococcus sp.; Streptococcus pyogenes (GC 4563), broth dilution, 18 hours at 35° C.) was 16 µg/mL (≈ 8.92 µM). For the same molecule, the “MIC Streptococcus pneumoniae (ATCC 6301)” value (Streptococcus sp.; strain ATCC 6301) was 32 µg/mL (≈ 17.8 µM), the “MIC Streptococcus pneumoniae (GC 1894)” value (Streptococcus sp.; strain GC 1894) was 32 µg/mL (≈ 17.8 µM) and the “MIC Streptococcus pyogenes (GC 4563)” value (Streptococcus sp.; strain GC 4563) was 16 µg/mL (≈ 8.92 µM). The “MIC Streptococcus agalactiae (GC 4564)” value (Streptococcus sp.; strain GC 4564) was 32 µg/mL (≈ 17.8 µM), the “MIC Streptococcus pneumoniae (GC 4565)” value (Streptococcus sp.; strain GC 4565) was 64 µg/mL (≈ 35.7 µM) and the “MIC Coagulase Negative Staphylococcus (GC 4547)” value (Staphylococcus sp.) was 4 µg/mL (≈ 2.23 µM). The “MIC Coagulase Negative Staphylococcus (GC 4548)” value (Staphylococcus sp.) was 8 µg/mL (≈ 4.46 µM), the “MIC Coagulase Negative Staphylococcus (GC 4549)” value (Staphylococcus sp.) was 4 µg/mL (≈ 2.23 µM) and the “MIC Coagulase Negative Staphylococcus (GC 4551)” value (Staphylococcus sp.) was 8 µg/mL (≈ 4.46 µM). For the same molecule, the “MIC Coagulase Negative Staphylococcus (GC 6257)” value (Staphylococcus sp.) was 4 µg/mL (≈ 2.23 µM), the “MIC Staphylococcus aureus (ATCC 29213)” value (Staphylococcus sp.) was 8 µg/mL (≈ 4.46 µM) and the “MIC Staphylococcus aureus (GC 1131)” value (Staphylococcus sp.) was 16 µg/mL (≈ 8.92 µM). The “MIC Staphylococcus aureus (GC 3051)” value (Staphylococcus sp.) was 8 µg/mL (≈ 4.46 µM), the “MIC Staphylococcus aureus (GC 3053)” value (Staphylococcus sp.) was 8 µg/mL (≈ 4.46 µM) and the “MIC Staphylococcus aureus (GC 4541)” value (Staphylococcus sp.) was 8 µg/mL (≈ 4.46 µM). For the same molecule, the “MIC Staphylococcus aureus (GC 4542)” value (Staphylococcus sp.) was 8 µg/mL (≈ 4.46 µM), the “MIC Staphylococcus aureus (GC 4544)” value (Staphylococcus sp.) was 8 µg/mL (≈ 4.46 µM) and the “MIC Staphylococcus aureus (GC 4545)” value (Staphylococcus sp.) was 4 µg/mL (≈ 2.23 µM). For the same molecule, the “MIC Staphylococcus aureus SMITH (GC 4543)” value (Staphylococcus sp.) was 8 µg/mL (≈ 4.46 µM), the “MIC Staphylococcus haemolyticus (GC 4546)” value (Staphylococcus sp.) was 4 µg/mL (≈ 2.23 µM) and the “MIC Staphylococcus aureus (ATCC 29213)” value (Staphylococcus sp.; strain ATCC 29213) was 8 µg/mL (≈ 4.46 µM). For the same molecule, the “MIC Staphylococcus aureus (GC 1131)” value (Staphylococcus sp.; strain GC 1131) was 16 µg/mL (≈ 8.92 µM), the “MIC Staphylococcus aureus (GC 3051)” value (Staphylococcus sp.; strain GC 3051) was 8 µg/mL (≈ 4.46 µM) and the “MIC Staphylococcus aureus (GC 3053)” value (Staphylococcus sp.; strain GC 3053) was 8 µg/mL (≈ 4.46 µM). The “MIC Staphylococcus aureus (GC 4541)” value (Staphylococcus sp.; strain GC 4541) was 8 µg/mL (≈ 4.46 µM), the “MIC Staphylococcus aureus (GC 4542)” value (Staphylococcus sp.; strain GC 4542) was 8 µg/mL (≈ 4.46 µM) and the “MIC Staphylococcus aureus (GC 4544)” value (Staphylococcus sp.; strain GC 4544) was 8 µg/mL (≈ 4.46 µM). For the same molecule, the “MIC Staphylococcus aureus (GC 4545)” value (Staphylococcus sp.; strain GC 4545) was 4 µg/mL (≈ 2.23 µM), the “MIC Coagulase Negative Staphylococcus (GC 4547)” value (Staphylococcus sp.; strain GC 4547) was 4 µg/mL (≈ 2.23 µM) and the “MIC Coagulase Negative Staphylococcus (GC 4548)” value (Staphylococcus sp.; strain GC 4548) was 8 µg/mL (≈ 4.46 µM). For the same molecule, the “MIC Coagulase Negative Staphylococcus (GC 4549)” value (Staphylococcus sp.; strain GC 4549) was 4 µg/mL (≈ 2.23 µM), the “MIC Coagulase Negative Staphylococcus (GC 4551)” value (Staphylococcus sp.; strain GC 4551) was 8 µg/mL (≈ 4.46 µM) and the “MIC Coagulase Negative Staphylococcus (GC 6257)” value (Staphylococcus sp.; strain GC 6257) was 4 µg/mL (≈ 2.23 µM). The “MIC Staphylococcus aureus-SMITH (GC 4543)” value (Staphylococcus sp.; strain SMITH GC 4543) was 8 µg/mL (≈ 4.46 µM), the “Clinical Chemistry (Day 10) % of Control, ALT” value [3] was 182% and the “Clinical Chemistry (Day 10) % of Control, AST” value [3] was 147%.
